{
  "source": "patent US4338302A",
  "about": "“Herbicolin and microbiological method for the preparation thereof” (priority 1979, dated 1982)",
  "key": {"Neurospora crassa [1]": {"tested_on": "Neurospora crassa", "assay": "Comparative plate diffusion test with other conventional antifungal substances (Example 5 (1))", "format": "cell-based", "procedure": "(§1) Respectively, 10 μg of the corresponding antibiotics is pipetted in the form of a methanolic solution on the filter plates and, after drying, placed on a nutrient substrate inoculated with Neurospora crassa spores."}, "Neurospora crassa [2]": {"tested_on": "Neurospora crassa", "assay": "Comparative plate diffusion test with membrane-modifying peptide antibiotics (Example 5 (2))", "format": "cell-based", "settings": "10 μg/plate; in words", "procedure": "as §1\n(2) In the same manner, various membrane-modifying peptide antibiotics are comparison-tested with herbicolin A:\nTrichotoxin A 40, Suzukazillin, Alamethicin F 50, and herbicolin A, respectively, 10 μg/plate."}},
  "note": "Where a SMILES comes first, the peptide text is derived from it. [ ]: non-standard residue; d: D form. Phe(ol) = N[C@H](CO)Cc1ccccc1; Aib = CC(C)(N)C(=O)O",
  "data": [
    {"smiles": "COC1=CC(=O)C[C@@H](C)[C@]12Oc1c(Cl)c(OC)cc(OC)c1C2=O", "note": "[griseofulvin]", "values": [
      {"measurement": "inhibition zone", "setting": "Neurospora crassa [1]; 10 μg on filter plate, 18 hours, 27° C.", "result": "no inhibition zone"}
    ]},
    {"smiles": "CC(=O)NC(C)(C)C(=O)N1CCC[C@H]1C(=O)NC(C)(C)C(=O)N[C@@H](C)C(=O)NC(C)(C)C(=O)N[C@@H](C)C(=O)N[C@@H](CCC(N)=O)C(=O)NC(C)(C)C(=O)N[C@H](C(=O)NC(C)(C)C(=O)NCC(=O)N[C@@H](CC(C)C)C(=O)NC(C)(C)C(=O)N1CCC[C@H]1C(=O)N[C@H](C(=O)NC(C)(C)C(=O)NC(C)(C)C(=O)N[C@@H](CCC(=O)O)C(=O)N[C@@H](CCC(N)=O)C(=O)N[C@H](CO)Cc1ccccc1)C(C)C)C(C)C", "note": "[Alamethicin] (Ac-[Aib]P[Aib]A[Aib]AQ[Aib]V[Aib]GL[Aib]PV[Aib][Aib]EQ[Phe(ol)])", "values": [
      {"measurement": "inhibition zone", "setting": "Neurospora crassa [2]", "result": "only a weak inhibition zone"}
    ]},
    {"smiles": "C[C@@H]1[C@H](O)[C@@H](C)/C=C/C=C/C=C/C=C/C=C/C=C/C=C/[C@H](O[C@@H]2O[C@H](C)[C@@H](O)[C@H](N)[C@@H]2O)C[C@@H]2O[C@](O)(C[C@@H](O)C[C@@H](O)[C@H](O)CC[C@@H](O)C[C@@H](O)CC(=O)O[C@H]1C)C[C@H](O)[C@H]2C(=O)O", "note": "[amphotericin]", "values": [
      {"measurement": "zone of inhibition at 10 µg/disc", "setting": "Neurospora crassa [1]; Neurospora crassa, 18 h, read-out: inhibition zone", "result": "~10", "unit": "mm"}
    ]}
  ]
}
